{"source": "patent US20240376436A1", "about": "“COMPOSITIONS AND METHODS FOR BIASING THE POLARITY OF ORGANOIDS” (STEMCELL TECHNOLOGIES CANADA INC., priority 2021, published 2024)", "key": {"[1]": {"tested_on": "apical-out organoids formed from human bronchial epithelial cells", "experiment": "Counting ciliated cells among dissociated apical-out airway organoids", "format": "cell-based", "details": "FIG. 3; for percentage of ciliated cells: first donor, highest concentrations of the titrated inhibitor in the organoid medium", "method": "Cells were cultured and dissociated in accordance with Example 1, and seeded into Aggrewell™ 400 plates (STEMCELL Technologies) that were prepared in accordance with Example 2. Aggregates were generated by seeding roughly 1.2×10^5 cells per well (100 cells per microwell) of an Aggrewell™ 400 plate. The cells were seeded in 500 μL of apical-out organoid medium comprising a basal medium and an inhibitor of notch signaling. The AggreWell™ plate was centrifuged for 3 min at 100 g in order to sediment the cells to the bottom of the microwell. The plates were then incubated for 24 h to 144 h at 37° C. and 5% CO2.\n(§1) After the aggregates were formed and sufficiently matured in accordance with Example 3, 500 μL of fresh apical-out airway organoid medium was added to each well. The aggregates were then resuspended using a P1000 pipette and each well distributed to two wells of a 24-well plate (prepared as described in Example 2). The aggregates were incubated under non-adherent conditions in apical-out airway organoid medium for up to 15 days. A partial medium change was performed every second day.\nApical-out airway organoids formed in accordance with Example 4 were harvested on day 15, transferred to a 15 ml tube, and centrifuged at 150 g for 5 min. The supernatant was removed, and the organoids were washed once with DMEM. The washed organoids were resuspended in ACCUTASE (STEMCELL Technologies) and were incubated for 15 minutes at room temperature, before being dissociated to single cells by pipetting vigorously with a P1000 pipette. The single-cell suspension was diluted 1:1 with trypan blue and was then loaded to a Hemocytometer where the cells were counted manually. At the time the dissociated cells are counted, the number of ciliated cells can also be determined by visual inspection.\nIn one experiment, apical-out organoids were formed from two donor samples in apical-out media formulated with different concentrations of an inhibitor of notch signaling and an inhibitor of TGFbeta signaling. […]"}, "[2]": {"tested_on": "apical-out organoids generated from passage 6 pulmonary lineage cells", "experiment": "Imaging of ciliation of apical-out organoids", "format": "cell-based, human", "details": "passage 6 cells; medium comprising an inhibitor of TGFbeta signaling and Y-27632; FIG. 7A", "method": "as §1\nFully mature organoids, formed in accordance with Example 4, were imaged using a standard microscope camera. For example, the organoids may be imaged using a Leica DMi8 or an EVOS M500.\nRepresentative images of apical-out organoids generated from passage 6 pulmonary lineage cells from a donor are shown in FIG. 7."}}, "data": [{"smiles": "Cc1cccc(-c2[nH]ncc2-c2ccnc3ccccc23)n1", "note": "[A77-01]", "values": [{"measurement": "percentage of ciliated cells", "setting": "[1]", "result": "decreased percentage of ciliated cells"}, {"measurement": "emergence of ciliated cells", "setting": "[1]; second donor, lower concentrations in the organoid medium", "result": "detrimental to the emergence of ciliated cells"}]}, {"smiles": "C[C@H](NC(=O)Cc1cc(F)cc(F)c1)C(=O)N[C@H](C(=O)OC(C)(C)C)c1ccccc1", "note": "[DAPT]", "values": [{"measurement": "percentage of ciliated cells", "setting": "[1]", "result": "decreased percentage of ciliated cells"}]}, {"smiles": "C[C@@H](N)[C@H]1CC[C@H](C(=O)Nc2ccncc2)CC1", "note": "[Y-27632]", "values": [{"measurement": "ciliation of organoids (representative images)", "setting": "[2]", "result": "patchy ciliation"}]}]}
